# Assay results taken from US20260114452A1, “ADDITIVES FOR COLOR DRIFT REDUCTION IN COPPER-BASED ANTIMICROBIAL POLYMERIC FORMULATIONS” (CORNING INCORPORATED, priority 2021, published 2026).
# Where a name gives a salt, the structure may show the parent alone.
# How the values were obtained:
# [1] = Color drift of paint dosed with copper-containing material and copper-coordinating additive (CIE a* before/after peroxide); assay type: physicochemical; conditions: for a* drift (total drift in color, gap between paint color before and after peroxide testing) / a* endpoint: FIG. 1, Control B paint, Cu:phosphate dibasic 1:0.3 and 1:0.6, other additives 1:0.5 and 1:1; for a* endpoint: after peroxide; for drift in color: FIG. 3, additive neutralized to pH 7 before copper-containing material, 1:1.5 and 1:3 molar ratios; for color drift: 1:1 and 1:3 molar ratios; for color drift / color shift to endpoint / color drift: additive neutralized to pH 7; for color shift to endpoint / color drift: FIG. 10
# bacteria = test: Antimicrobial efficacy (logarithmic reduction) of paint samples with copper-containing material and copper-coordinating additive; assay type: cell-based; conditions: FIG. 12; 50 g of 1:3 molar ratio mixture per gallon of control paint
# Excerpt: As used herein, the term “logarithmic reduction” means the negative value of log (Ca/C0), where Ca refers to the colony form unit (“CFU”) number of the antimicrobial surface and C0 refers to the CFU of the control surface that is not an antimicrobial surface. As an example, a 3 logarithmic reduction equals about 99.9% of the microbes killed and a logarithmic reduction of 5 equals about 99.999% of microbes killed. The logarithmic reduction value may be measured according to the ASTM D2574-16 (2016) “Standard Test Method for Resistance of Emulsion Paints in the Container to Attack by Microorganisms.”
# The effectiveness of a composition of the present disclosure as a biocidal composition may be measured as a function of the composition's logarithmic reduction. The composition's logarithmic reduction value may be relevant to its ability to kill a wide variety of biological organisms to which the composition is exposed, but may also allow the copper-containing material to act as a preservative for the composition during storage (e.g., in a container such as, but not limited to a tank, a can, a bucket, a drum, a bottle, or a tube). […]
# [2] = FIG. 5, Control N paint, 50 g/gallon
Compound,"a* drift (total drift in color, gap between paint color before and after peroxide testing) ([1]; 50 g/gallon)",a* endpoint ([1]; 50 g/gallon),"color shift to endpoint / color drift ([1]; 1:3 molar ratio, 50 g/gallon)",other results
"CCCCC(CC)COP(=O)(O)O (centres unmarked) [2EHP, 2-ethylhexylphosphate]",−0.25 to −1,−0.5 to −1,–,"drift in color ([1]; 50 g/gallon): reduced significantly; color drift [1, 2]: did not minimize drift; color drift, 1:3 molar ratio relative to 1:1 molar ratio [1, 2]: some reduction in drift"
CCON [ethoxyamine hydrochloride],–,–,"accelerated color shift to endpoint, minimizing color drift",impact on antimicrobial efficacy (bacteria): minimal impact on antimicrobial efficacy
Cl.NO [hydroxylamine hydrochloride],~0,did not change the endpoint a*,–,"drift in color ([1]; 50 g/gallon): reduced significantly; color drift [1, 2]: minimized color drift by accelerating to endpoint quickly; effect on a* / color endpoint (summary of data) ([1]; control paint samples, summary): accelerated color endpoints and reduced color shifts by starting with more negative a* values"
COP(=O)(O)O [methyl phosphate],–,–,"accelerated color shift to endpoint, minimizing color drift",impact on antimicrobial efficacy (bacteria): minimal impact on antimicrobial efficacy
O=P(O)(O)Oc1ccccc1 [phenyl phosphate],–,–,–,"color shift to endpoint ([1]; FIG. 13, 1:3 molar ratio, 50 g/gallon): all copper-coordinating additives except for phenyl phosphate accelerated color shift to endpoint"
COP(=O)(OC)OC [trimethyl phosphate],–,–,"accelerated color shift to endpoint, minimizing color drift",–
NC(N)=O [urea],~−1,did not change the endpoint a*,–,–
phosphate dibasic,−1.75,~−1.5,–,–
